# Experiments:
# [1] = tested on: HIV-1; assay: HIV assay in PBM cells (RT activity); format: cell-based; conditions: HIV-1 in human PBM cells
# Method: The antiviral activity of the synthesized compounds and honokiol were evaluated against HIV-1 in human peripheral blood mononuclear (PBM) cells (Table 4).
# Human peripheral blood mononuclear (PBM) cells (which can be obtained from Atlanta Red Cross) can be isolated by Ficoll-Hypaque discontinuous gradient centrifugation from healthy seronegative donors. Cells can be stimulated with phytohemagglutinin A (Difco, Sparks, Md.) for 2-3 days prior to use. HIV-1, such as HIV-1LAI can be obtained from the Centers for Disease Control and Prevention (Atlanta, Ga.), and can be used as the standard reference virus for the antiviral assays. The molecular infectious clones HIV-1xxBru and HIV-1M184Vpin can be obtained from Dr. John Mellors (University of Pittsburgh). Infections can be done in bulk for one hour, either with 100 TCID50/1×10^7 cells for a flask (T25) assay or with 200 TCID50/6×10^5 cells/well for a 24 well plate assay. Cells can be added to a plate or flask containing a ten-fold serial dilution of the test compound. Assay medium can be RPMI-1640 supplemented with heat inactivated 16% fetal bovine serum, 1.6 mM L-glutamine, 80 IU/ml penicillin, 80 μg/ml streptomycin, 0.0008% DEAE-Dextran, 0.045% sodium bicarbonate, and 26 IU/ml recombinant interleukin-2 (Chiron Corp, Emeryville, Calif.). AZT can be used as a positive control for the assay. Untreated and uninfected PBM cells can be grown in parallel at equivalent cell concentrations as controls. The cell cultures can be maintained in a humidified 5% CO2-air at 37° C. for 5 days and supernatants can be collected for reverse transcriptase (RT) activity.
# Supernatants can be centrifuged at 12,000 rpm for 2 hours to pellet the virus. The pellet can be solubilized with vortexing in 100 μl virus solubilization buffer (VSB) containing 0.5% Triton X-100, 0.8 M NaCl, 0.5 mM phenylmethylsulfonyl fluoride, 20% glycerol, and 0.05 M Tris, pH 7.8. Ten μL of each sample can be added to 75 μL RT reaction mixture (0.06 M Tris, pH 7.8, 0.012 M MgCl2, 0.006 M dithiothreitol, 0.006 mg/ml poly (rA)n, oligo (dT)12-18, 96 μg/ml dATP, and 1 μM of 0.08 mCi/ml ^3H-thymidine triphosphate (Moravek Biochemicals, Brea, Calif.) and can be incubated at 37° C. for 2 hours. The reaction can be stopped by the addition of 100 μL 10% trichloroacetic acid containing 0.05% sodium pyrophosphate. The acid insoluble product can be harvested onto filter paper using a Packard Harvester (Meriden, Conn.), and the RT activity can be read on a Packard Direct Beta Counter (Meriden, Conn.). The RT results can be expressed in counts per minute (CPM) per milliliter. The antiviral 50% effective concentration (EC50) and 90% effective concentration (EC90) can be determined from the concentration-response curve using the median effect method (Belen'kii, S. M.; Schinazi, R. S. Multiple drug effect analysis with confidence interval. Antiviral. Res. 1994, 25, 1-11).
# [2] = tested on: PBM cells; assay: cytotoxicity assay (MTT); format: cell-based, human
# Method: (§1) The cytotoxicity of the honokiol and analogues thereof were assessed in human PBM, CEM and Vero cells (Table 4). Compounds can be evaluated for their potential toxic effects on uninfected human PBM cells, in CEM (T-lymphoblastoid cell line obtained from American Type Culture Collection, Rockville, Md.) and Vero (African green monkey kidney) cells. PBM cells can be obtained from whole blood of healthy seronegative donors (HIV-1) by single-step Ficoll-Hypaque discontinous gradient centrifugation. […] All of the cells can be plated in 96-well cell culture plates containing ten-fold serial dilutions of the test drug. […] At the end of incubation, MTT tetrazolium dye solution (Cell titer 96®, Promega, Madison, Wis.) can be added to each well and incubated overnight. The reaction can be stopped with stop solubilization solution (Promega, Madison, Wis.). […] The plates can be read at a wavelength of 570 nm using an ELISA plate reader (Bio-tek instruments, Inc., Winooski, Vt., Model #EL 312e). The 50% inhibition concentration (IC50) can be determined from the concentration-response curve using the median effect method.
# [3] = tested on: CEM (T-lymphoblastoid cell line); assay: cytotoxicity assay (MTT); format: cell-based
# Method: as §1
smiles,measurement,setting,value
"Cc1cn([C@H]2C[C@H](N=[N+]=[N-])[C@@H](CO)O2)c(=O)[nH]c1=O [AZT, reference compound]",EC50,[1]; read-out: Activity anti-VIH-1 on PBM cells EC50,14 nM
same,EC90,[1]; read-out: Activity anti-VIH-1 on PBM cells EC90,49 nM
same,EC50,[2],> 100000 nM
same,EC50,[3],14300 nM

# From US20080300298A1, “Honokiol Derivates For the Treatment of Proliferative Disorders” (priority 2005, published 2008)
